{
  "source": "patent US11857634B2",
  "about": "“Cationic amphiphilic polymers for codelivery of hydrophobic agents and nucleic acids” (University of Pittsburgh—Of the Commonwealth System of …, priority 2018, dated 2024)",
  "key": {"[1]": {"assay": "In vitro DOX release from POEG-st-Pmor micelles by dialysis", "assay_type": "physicochemical", "details": "first 4 hours, PBS, 37 °C", "description": "In vitro drug release study for POEG-st-Pmor micelles. The in vitro DOX release kinetics for the POEG-st-Pmor micelles was determined by a dialysis method. Briefly, 0.5 ml of DOX-loaded micelles and micelles co-loaded with DOX and IL-36γ plasmid at a DOX concentration of 0.5 mg/mL were placed into a dialysis bag (MW cutoff 3,500), respectively. The dialysis bag was incubated in 100 mL PBS with gentle shaking at 37° C. Two ml of PBS solution outside of the dialysis bag was collected at different time points and equal amount of fresh PBS was added back. The concentrations of released DOX were determined by HPLC."}, "[2]": {"assay": "Cellular uptake of DOX by confocal laser scanning microscopy (POEG-st-Pmor)", "assay_type": "cell-based", "details": "2 h of incubation", "text": "The cellular uptake of DOX-loaded POEG-st-Pmor micelles was investigated by confocal laser scanning microscopy with free DOX as a control. […] This may, for example, be a result of different cellular uptake routes of free DOX and DOX micelles."}, "[3]": {"test_system": "4T1.2 breast cancer lung metastasis", "assay": "Mouse model of breast cancer lung metastasis (4T1.2), POEG-st-Pmor formulations", "assay_type": "in vivo, mice", "details": "i.v. every three days for three times; DOX 5 mg/kg, plasmid 50 μg per mouse", "description": "Mouse model of breast cancer lung metastasis. Female Balb/c mice were injected with 2×10^5 4 T1.2 cells through the tail vein. Five days after tumor cell injection, mice were randomly divided into 6 groups. POEG-st-Pmor was chosen as a representative carrier system for codelivery of IL-36γ plasmid and DOX. […] The PBS treatment group was used as control. DOX dosage was 5 mg/kg and plasmid dosage was 50 μg per mouse. Lung tissues were harvested and weighted 11 days after the first injection. Pulmonary metastases were enumerated by intra-tracheal injection of India ink solution. India ink-injected lungs were washed in Feket's solution (300 ml 70% EtOH, 30 ml 37% formaldehyde and 5 ml glacial acetic acid) and white tumor nodules against a dark blue lung background were counted.\nHistopathological analysis. The lung tissues were harvested and fixed in 10% formalin after the above treatments. The fixed samples were then embedded in paraffin and the tissue sections were stained with hematoxylin/eosin and analyzed for the presence of metastases under microscope. The total number of metastases per lung section was counted in different treatment groups."}, "[4]": {"test_system": "immune cells in lung tissues", "assay": "Tumor-infiltrating lymphocytes and MDSCs in tumor-bearing lungs, flow cytometry (POEG-st-Pmor)", "assay_type": "in vivo, mice", "details": "compared to untreated control group", "description": "Analysis of tumor-infiltrating lymphocytes and myeloid-derived suppressor cells. Lung tissues were collected in serum free RPMI medium and cut mechanically with scissors. Liberase TL (0.3 mg/ml) and DNase I (0.3 mg/ml) were used to digest the lung tissues and tumor nodules. Tissues were further grinded and filtered through a […] cell strainer. TILs and MDSC cells were further purified and stained with fluorescence-labeled antibody for flow cytometry analysis using a FACS flow cytometer."}, "[5]": {"assay": "DOX release from POEG-PCre micelles by dialysis against DPBS", "assay_type": "physicochemical", "details": "first 4 h, DPBS pH 7.4, 37 °C", "description": "The release kinetics of DOX from DOX-loaded POEG-PCre micelles was investigated by dialysis against DPBS of pH 7.4 at 37° C. […] To the contrary, only 16% of DOX was released from DOX/POEG-PCre micelles in first 4 h, and less than 40% of DOX was released for an extended period of 96 h."}, "[6]": {"test_system": "4T1.2 cells", "assay": "Intracellular co-delivery of DOX and MFP488-labeled tRNA-mir-34a, confocal microscopy", "assay_type": "cell-based, murine", "details": "4 h", "description": "To monitor intracellular co-delivery of DOX and tRNA-mir-34a, tRNA-mir-34a was labeled with MFP488 fluorescent dye to visualize the cell uptake of tRNA-mir-34a along with red fluorescence of DOX. 4T1.2 cells were incubated for 4 h with micelle complexes carrying DOX and/or MFP488-labeled tRNA-mir-34a and then observed under a confocal microscope. Naked tRNA-mir-34a without any transfection agent was used as a negative control."}, "[7]": {"test_system": "Dicer", "assay": "Induction of Dicer after treatment", "assay_type": "cell-based", "details": "dose dependent"}, "[8]": {"test_system": "4T1.2 cells", "assay": "In vitro cytotoxicity, MTT assay (POEG-PCre formulations)", "assay_type": "cell-based, murine", "details": "48 h; DOX 7.8-1,000 ng/mL, tRNA-mir 0.78-100 nM, carrier 78-10000 ng/mL", "description": "The in vitro cytotoxicity of DOX+tRNA-mir-34a co-loaded POEG-PCre micelles was evaluated by MTT assay. Tumor cells were treated with various formulations for 48 h, with the doses of DOX, tRNA-mir, and POEG-PCre carrier ranging from 7.8 to 1,000 ng/mL, 0.78 nM to 100 nM, and 78 ng/mL to 10000 ng/mL, respectively. […] A similar trend was also observed in MDA-MB-231 breast cancer cells (FIG. 14B)."}, "[9]": {"test_system": "breast cancer cells", "assay": "Apoptosis assay, Annexin V/propidium iodide flow cytometry", "assay_type": "cell-based", "description": "The enhanced cytotoxicity of DOX+tRNA-mir-34a-co-loaded nanocomplexes was assessed via apoptosis assay. Cell apoptosis was evaluated quantitatively by Annexin V/propidium iodide flow cytometry."}, "[10]": {"test_system": "4T1.2 cancer cells", "assay": "Cell migration, wound closure assay", "assay_type": "cell-based, murine", "details": "4T1.2, 24 h", "text": "Besides cancer cell viability, cell migration represents a critical process for tumor progression and metastasis. MiR-34a has been reported to be functional as an anti-metastatic miRNA by directly targeting CD44 and NOTCH-1. Therefore, the effect of tRNA-mir-34a and DOX co-loaded nanocomplexes on the cell migration was investigated using the wound closure assay."}, "[11]": {"test_system": "4T1.2 tumor metastasis", "assay": "Breast cancer lung metastasis model (4T1.2), POEG-PCre formulations", "assay_type": "in vivo, mice", "details": "i.v. every 3 d for 3 times, analysed 5 days after last treatment", "description": "The in vivo anti-tumor efficacy of DOX+tRNA-mir-34a co-loaded nanocomplexes was evaluated in a breast cancer lung metastasis model, generated by tail-vein injection of 4T1.2 tumor cells into female Balb/c mice. Five days after tumor inoculation, various treatments were applied to each group of mice (n=5) via i.v. administration every 3 d for 3 times. The tumor burdens in the lungs were analyzed 5 days after the last treatment. […] No significant decrease of body weight was observed, indicating the safety of the formulation (FIG. 15C).\nTo further confirm the anticancer efficacy, H&E staining and immunohistochemical analysis of Ki67 were performed in tumor-bearing lungs."}, "[12]": {"assay": "Toxicity: body weight, blood chemistry, H&E staining of major organs", "design": "species or system mice", "details": "mouse, in vivo", "description": "In addition, blood chemistry tests were performed to evaluate the effect of our formulations on liver and kidney functions. […] Moreover, the H & E staining of major organs was carried out to further evaluate the potential toxicity of different treatments."}, "[13]": {"test_system": "immune cells in tumor-bearing lungs", "assay": "Immune cells in tumor-bearing lungs (POEG-PCre formulations)", "design": "species or system mice", "details": "mouse, in vivo", "text": "Treatment with tRNA-mir-34a alone or tRNA-mir-34a/DOX combination reduced the numbers of PD1+ CD8 cells (FIG. 16D) and T-regulatory cells (Tregs) (FIG. 16E)."}, "[14]": {"assay": "Intracellular uptake and distribution of DOX at pH 6.8 and 7.4, CLSM", "assay_type": "cell-based", "details": "4 h incubation", "text": "Intracellular uptake and distribution of DOX-loaded micelles and IL-12/DOX co-loaded PMet-P(cdmPEG2K) micelleplexes was investigated by CLSM."}, "[15]": {"test_system": "4T1.2 breast cancer cells", "assay": "In vitro cytotoxicity, MTT assay (POEG-st-Pmor formulations)", "details": "4T1.2 cells, 72 h", "procedure": "Briefly, 4T1.2 cells (2,000 cells/well) were seeded in 96-well plates for overnight and were treated with various concentrations of DOX formulations for 72 h. MTT solution was added to each well and MTT formazan was solubilized by DMSO after 2 h of incubation. The absorbance in each well was measured by a microplate reader at a wavelength of 570 nm. Cell viability was calculated as [(ODtreat−ODblank)/(ODcontrol−ODblank)×100%]. The cytotoxicity of POEG-st-Pmor micelles alone was similarly tested in 4T1.2 cells as described above."}},
  "note": "Entries after “also recorded” stand apart in the source; their conditions may differ.",
  "data": [
    {"smiles": "COc1cccc2c1C(=O)c1c(O)c3c(c(O)c1C2=O)C[C@@](O)(C(=O)CO)C[C@@H]3O[C@H]1C[C@H](N)[C@H](O)[C@H](C)O1", "note": "[free DOX, Doxorubicin]", "values": [
      {"measurement": "DOX released", "setting": "[1]", "result": 80, "unit": "%"},
      {"measurement": "Intracellular location of DOX signals", "setting": "[2]", "result": "largely found in the nucleus"},
      {"measurement": "Antitumor activity / inhibition of lung metastasis", "setting": "[3]", "result": "significant inhibition of lung metastasis; also recorded: significant activity"},
      {"measurement": "CD4+ T cells in lung tissues", "setting": "[4]", "result": "significant increase"},
      {"measurement": "CD8+ T cells in lung tissues", "setting": "[4]", "result": "significant increase"},
      {"measurement": "DOX released", "setting": "[5]", "result": "more than 80%"},
      {"measurement": "Intracellular location of fluorescence signals", "setting": "[6]", "result": "largely found in the nucleus"},
      {"measurement": "Dicer expression", "setting": "[7]", "result": "induction of Dicer"},
      {"measurement": "Cell growth inhibition / cytotoxicity", "setting": "[8]", "result": "inhibited the proliferation of tumor cells in a dose dependent manner"},
      {"measurement": "Cell apoptosis", "setting": "[9]", "result": "~31", "unit": "%"},
      {"measurement": "Inhibition of cell migration", "setting": "[10]", "result": "~40", "unit": "%"},
      {"measurement": "Inhibition of lung metastasis / tumor nodules in lungs", "setting": "[11]", "result": "Dramatic reduction in the number of tumor nodules"},
      {"measurement": "Pathological changes, H&E staining of major organs", "setting": "[12]", "result": "signs of myocytolysis and myofibrillolysis with fibrils dearrangement; also recorded: hepatocellular vacuolation"},
      {"measurement": "Numbers of CD4 cells in tumor-bearing lungs", "setting": "[13]", "result": "significant increase"},
      {"measurement": "Numbers of CD8 cells in tumor-bearing lungs", "setting": "[13]", "result": "significant increase"},
      {"measurement": "Numbers of MDSC", "setting": "[13]", "result": "trend of decreases"},
      {"measurement": "Numbers of functional CD8 (IFN-γ+ CD8) cells", "setting": "[13]", "result": "trend of increase"},
      {"measurement": "Cellular uptake compared with DOX-loaded micelles", "setting": "[14]", "result": "slightly stronger fluorescence signal"},
      {"measurement": "Intracellular DOX fluorescence at pH 6.8 versus pH 7.4", "setting": "[14]", "result": "not significantly affected by pH"},
      {"measurement": "Cytotoxicity", "setting": "[15]; DOX 4 to 1000 ng/mL", "result": "dose-dependent cell killing profile"},
      {"measurement": "IC50", "setting": "[15]; MTT, as DOX", "result": 0.13, "unit": "µg/mL"}
    ]}
  ]
}
